# Reference: patent US20080145465A1, “Sesquiterpene lactone extract from artemisia leucodes for reducing inflammation and down-regulating pro-inflammatory gene expression” (priority 2006, published 2008)
# Entries after “also recorded” stand apart in the source; their conditions may differ.
# How the values were obtained:
# COX-2 = assay: Quantitative real-time RT-PCR: COX-2 gene expression in LPS-elicited RAW 264.7 macrophages; assay type: cell-based, murine; conditions: for COX-2 gene expression (LPS control = 100; values less than 100 represent inhibition): Table 4 experiment
# Method: (§1) RAW 264.7 murine monocyte/macrophages (ATCC TIB-71) were maintained in Dulbecco's Modified Eagle Medium (D-MEM, Invitrogen Corp., Carlsbad, Calif.) supplemented with 10% fetal bovine serum (FBS, Invitrogen Corp., Carlsbad, Calif.) and 1% streptomycin and were kept in a humidified 37° C. incubator with 5% CO2. Cells were subcultured by scraping when plates reached 90% confluency with a 1:5 ratio.
# (§2) Murine RAW macrophages 264.7 were plated at a density of 0.4×10^6 cells per well in 24-well plates 12 hours prior to treatment. A stock solution of AL-1 was created by completely dissolving the dry extract as in Example 1 in 95% ethanol. Two hours before elicitation with lipopolysaccharide (LPS, 1 μg/ml, Sigma, St. Louis, Mo.) the cells were treated with various concentrations of AL-1 (25-200 μg/ml) or vehicle control, maintaining a final concentration of 0.5% ethanol for all treatments. After six hours of treatment, RNA was extracted from cells using TRIzol® reagent (Invitrogen Corp., Carlsbad, Calif.) according to the manufacturer instructions. RNAs were quantified spectrophotometrically at 260 nm and stored at −80° C. until real-time PCR could be performed.
# (§3) RNA was purified by treating with DnaseI (Invitrogen Corp., Carlsbad, Calif.) before performing reverse transcription with Stratascript Reverse Transcriptase, an RNA dependent DNA polymerase (Stratagene, La Jolla, Calif.) according to the manufacturer instructions. The cDNAs obtained were then amplified by real-time PCR. Expression of COX-2, iNOS, IL1β and β-actin gene expression levels was quantified using a Stratagene Mx 3000P™ Real-Time PCR System (Stratagene, La Jolla, Calif.). Primers for each gene were designed using Primer Express® version 2.0 software (Applied Biosystems, Foster City, Calif.; Table 2) (Giulietti et al., 2001; Overbergh et al., 2003).
# (§4) Real-time PCR analyses were carried out using a Brilliant® SYBR® Green PCR master mix kit (Stratagene, La Jolla, Calif.) according to kit instructions. Samples were amplified using the following program: two minutes incubation at 50° C.; initial denaturation and polymerase activation at 95° C. for ten minutes; 40 PCR cycles consisting of 15 seconds at 95° C. and 60 seconds at 60° C. each. The RNA expression of the target genes were analyzed by ΔΔCT methods (Winer et al., 1999) using β-Actin gene as normalizer. The ΔΔCT values obtained from these analyses directly reflect the relative mRNA quantities for the marker gene in response to specific treatments. Lower ΔΔCT values indicate greater anti-inflammatory activity. The changes in gene expression as reflected by ΔΔCT values can also be expressed as percentage genetic inhibition [(1−ΔΔCT)×100] indicating anti-inflammatory properties of the test compounds. Amplification of specific transcripts was further confirmed by obtaining melting curve profiles. All samples were run in duplicate; four independent analyses were performed.
# [1] = tested on: nitric oxide (NO) production from RAW macrophages; assay: Griess assay for NO production by LPS-stimulated RAW macrophages; assay type: cell-based, murine; conditions: LPS 1 μg/mL, 24 hours, n = 8, % of control
# COX-1 = biological target: T1, COX-1 (Ovis aries, UniProt P05979); assay: Colorimetric COX inhibitor screening assay, COX-1; assay type: biochemical, ovine; conditions: data not shown
# T1 construct: purchased Cayman Chemical Company
# T1 sequence (P05979 25-600): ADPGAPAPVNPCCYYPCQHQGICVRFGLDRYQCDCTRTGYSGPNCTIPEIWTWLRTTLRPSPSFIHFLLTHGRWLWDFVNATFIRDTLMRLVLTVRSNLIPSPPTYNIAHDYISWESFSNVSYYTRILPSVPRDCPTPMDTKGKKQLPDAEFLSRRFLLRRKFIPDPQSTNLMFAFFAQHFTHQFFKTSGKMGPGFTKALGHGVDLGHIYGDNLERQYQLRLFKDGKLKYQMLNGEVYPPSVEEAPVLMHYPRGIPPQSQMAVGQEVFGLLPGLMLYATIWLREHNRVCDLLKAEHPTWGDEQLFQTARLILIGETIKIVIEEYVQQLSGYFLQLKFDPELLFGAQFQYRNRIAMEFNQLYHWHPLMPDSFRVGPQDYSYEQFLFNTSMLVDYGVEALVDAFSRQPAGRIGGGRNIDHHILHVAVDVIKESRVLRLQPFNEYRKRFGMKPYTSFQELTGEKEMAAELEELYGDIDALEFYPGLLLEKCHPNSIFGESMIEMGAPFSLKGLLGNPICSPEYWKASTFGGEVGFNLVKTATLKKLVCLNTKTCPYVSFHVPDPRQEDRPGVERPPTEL
# Method: An ovine COX inhibitor screening assay (Cayman Chemical Company, Ann Arbor, Mich.) was used to measure inhibition of purified COX-1 and COX-2. This assay measures the peroxidase component of cyclooxygenases colorimetrically by monitoring the appearance of oxidized N,N,N′,N′-tetramethyl-p-phenylenediamine (TMPD) at 590 nm. Tablets of Vioxx (rofecoxib; Merck & Co., Inc., Whitehouse Station, N.J.) were ground and dissolved in methanol (1 mg/mL) to use as a positive control. AL-1, leukomisin, and austricin were also dissolved in methanol at 1 mg/mL. The assay was performed following manufacturer instructions. Vioxx, vehicle (100% initial activity), or treatments were added to a 96-well plate along with 180 μL assay mixture provided by the manufacturer containing 150 μL assay buffer, 10 μL heme, and 10 μL enzyme (COX-1 or COX-2). A background correction row received no enzyme and 10 μL additional assay buffer. After 5 min incubation at room temp, 20 μL of a colorimetric substrate solution containing TMPD and 20 μL arachadonic acid diluted in assay buffer were added to the plate. The plate was incubated for 5 min and the absorbance was read at 590 nm using a microplate reader (Molecular Devices, Sunnyvale, Calif.). To calculate percent inhibition, average absorbance was calculated for each sample (n=3). The background blank well absorbance was subtracted from each sample. […]
# iNOS = assay: Quantitative real-time RT-PCR: iNOS gene expression in LPS-elicited RAW 264.7 macrophages; assay type: cell-based, murine; conditions: for iNOS gene expression (LPS control = 100; values less than 100 represent inhibition): Table 4 experiment
# Method: as §1, §2, §3, §4
# IL1β = assay: Quantitative real-time RT-PCR: IL1β gene expression in LPS-elicited RAW 264.7 macrophages; assay type: cell-based, murine; conditions: for IL1β gene expression (LPS control = 100; values less than 100 represent inhibition): Table 4 experiment; for effect on IL1β gene expression (in words): LPS-elicited RAW macrophages
# Method: as §1, §2, §3, §4
Structure (SMILES),COX-2 gene expression (LPS control = 100; values less than 100 represent inhibition) (COX-2; 25 μg),COX-2 gene expression (LPS control = 100; values less than 100 represent inhibition) (COX-2; 50 μg),COX-2 gene expression (LPS control = 100; values less than 100 represent inhibition) (COX-2; 75 μg),"NO production (relative to control), mean ± SE ([1]; 2 μg/ml) [%]","NO production (relative to control), mean ± SE ([1]; 4 μg/ml) [%]",COX-1 enzyme inhibition (in words) (COX-1),iNOS gene expression (LPS control = 100; values less than 100 represent inhibition) (iNOS; 25 μg),iNOS gene expression (LPS control = 100; values less than 100 represent inhibition) (iNOS; 50 μg),iNOS gene expression (LPS control = 100; values less than 100 represent inhibition) (iNOS; 75 μg),IL1β gene expression (LPS control = 100; values less than 100 represent inhibition) (IL1β; 25 μg),IL1β gene expression (LPS control = 100; values less than 100 represent inhibition) (IL1β; 50 μg),IL1β gene expression (LPS control = 100; values less than 100 represent inhibition) (IL1β; 75 μg),effect on IL1β gene expression (in words) (IL1β),effect on COX-2 gene expression (in words) (COX-2; LPS-elicited RAW macrophages),effect on iNOS gene expression (in words) (iNOS; LPS-elicited RAW macrophages)
"CC1=CC(=O)C2=C(C)C[C@H](O)[C@@H]3[C@H](OC(=O)[C@H]3C)[C@@H]12 (single isomer, unassigned) [austricin]",120,116,102,100 ± 1,100 ± 1,did not inhibit COX-1; also recorded: did not significantly inhibit,102,108,113,58,65,65,only marginal activity,–,–
CC1=CC(=O)C2=C(C)CC[C@@H]3[C@H](OC(=O)[C@H]3C)[C@@H]12 [leukomisin],140,165,159,100 ± 2,98 ± 1,did not inhibit COX-1 activity; also recorded: did not significantly inhibit,127,151,126,110,161,281,no affect on gene expression; also recorded: no activity,no affect on gene expression; also recorded: no activity,no affect on gene expression; also recorded: no activity
